Laboratory results reported in patent US20260216239A1 (Arizona Board of Regents on Behalf of the University of …, priority 2020, published 2026).

Experiments:
[1] = large dose of CORM-2 injected intravenously into rabbits; cited from earlier work
[2] = system: C. scutulatus scutulatus venom; details: CORM-2 as single agent; cited from earlier work
[3] = system: Pseudonaja textilis venom; details: previously characterized by this laboratory; cited from earlier work
[4] = molecular target: Mojave rattlesnake (Crotalus scutulatus scutulatus) venom type A (Crotalus scutulatus scutulatus, UniProt P62023); experiment: Thrombelastography in human plasma of PLA2-dependent anticoagulant activity of venom; type: biochemical
Procedure: With regard to materials and methods, Mojave rattlesnake (Crotalus scutulatus scutulatus) venom type A was originally obtained from the National Natural Toxins Research Center (NNTRC) located at Texas A&M University-Kingsville, Kingsville, TX, U.S.A. A previously unthawed aliquot of this venom used in a previous work (see, Nielsen V G (2019) J Thromb Thrombolysis 48, 256-262) was dissolved in calcium-free phosphate buffered saline (PBS, Sigma-Aldrich, Saint Louis, MO, USA) at a concentration of 50 mg/ml, and had been stored at −80° C. RuCl3 as obtained from Sigma-Aldrich, Saint Louis, MO, USA. Calcium chloride (CaCl2, 200 mM) was obtained from Haemonetics Inc., Braintree, MA, USA. Lastly, pooled normal human plasma (George King Bio-Medical, Overland Park, KS, USA) anticoagulated with sodium citrate (9 parts blood to 1 part 0.105M sodium citrate) stored at −80° C. was utilized in all subsequently described experiments.
Specific volumes of subsequently described plasma and chemical additives varied by condition but summated to 360 μl. Sample composition consisted of 320 μl of plasma; 16.4 μl of PBS, 20 μl of 200 mM CaCl2, and 3.6 μl of one of five subsequently described solutions, which were placed into a disposable cup in a computer-controlled Thrombelastograph® hemostasis system (Model 5000, Haemonetics Inc., Braintree, MA, USA) at 37° C., and then rapidly mixed by moving the cup up against and then away from the plastic pin five times before leaving the mixture between the cup and pin. The following elastic modulus-based parameters previously described (see, Nielsen V G (2019) J Thromb Thrombolysis 48, 256-262; Nielsen V G, Frank N, Matika R W (2018) Biometals 31, 51-59; Nielsen V G, Frank N, Turchioe B J (2019) Blood Coagul Fibrinolysis 30, 379-384; Nielsen V G (2021) J Thromb Thrombolysis, doi: 10.1007/s11239-020-02373-4) were determined: time to maximum rate of thrombus generation (TMRTG): this is the time interval (minutes) observed prior to maximum speed of clot growth; maximum rate of thrombus generation (MRTG): this is the maximum velocity of clot growth observed (dynes/cm^2/second); and total thrombus generation (TTG, dynes/cm^2), the final viscoelastic resistance observed after clot formation. Data were collected until maximum amplitude was reached as determined by the software of the thrombelastographic system.
Experiments involving plasma exposure to RuCl3 and venom utilized the following five experimental conditions: 1) control condition (C)—no venom, 1% addition of PBS (v/v) to plasma; 2) RuCl3 in water condition (R/W)—no venom, 1% addition (v/v) of 100 μM RuCl3 dissolved in water to plasma (final concentration 1 μM); 3) RuCl3 in PBS condition (R/P)—no venom, 1% addition (v/v) of 100 μM RuCl3 dissolved in PBS to plasma (final concentration 1 μM); 4) venom condition (V)—venom addition (v/v, 125 ng/ml final concentration as previously reported) in PBS to plasma; and, 5) venom exposed to RuCl3 dissolved in PBS condition (V+R/P)—venom and 100 μM RuCl3 1% addition (v/v) in PBS to plasma. All the solutions used for these five conditions to be placed in plasma remained at room temperature for five minutes prior to addition.

[5] = venom exposed 5 min to 100 μM RuCl3 in PBS vs RuCl3 naïve venom, venom 125 ng/ml

In the case of [C-]#[O+].[C-]#[O+].[C-]#[O+].[C-]#[O+].[C-]#[O+].[C-]#[O+].[Cl][Ru][Cl].[Cl][Ru][Cl] [CORM-2, tricarbonyldichlororuthenium(II) dimer], the tolerability [1] is given as “well tolerated”, the “anticoagulant effects of venom in vitro” value [2] is given as “very effectively abrogated” and the “CORM-2/ iRM Inhibition” value [3] is given as “Yes”.

For [Cl][Ru]([Cl])[Cl] [RuCl3, ruthenium(III) chloride], the “neurotoxic, anticoagulant PLA2 activity” value ([4]; RuCl3 dissolved in PBS, 100 μM) was “inhibited”, the “decrease in TMRTG values” [4, 5] was 47% and the “increase in MRTG values” [4, 5] was 375%. For the same compound, the “increase in TTG values” [4, 5] was 231% and the “TMRTG, MRTG or TTG values” ([4]; venom exposed to 100 μM RuCl3 in PBS vs control condition (no venom)) was “no significant differences”.
